In ChEMBL document CHEMBL2202954, “The effect of PLC-γ2 inhibitors on the growth of human tumour cells” (2012):

Tested on: NCI-H522
Assay: Cytotoxicity against human NCI-H522 cells by SRB assay
Assay type: functional

For `Cc1cc(C)c(NC(=O)c2sc3nc4c(cc3c2N)C(=O)CCC4)c(C)c1`, the GI50 was 360 nM and the TGI was 2010 nM.

`Cc1ccc(Cl)cc1NC(=O)c1sc2nc3c(cc2c1N)C(=O)CCC3` was tested, and the GI50 was 2170 nM and the TGI was 4950 nM.

`Cc1ccccc1NC(=O)c1sc2nc3c(cc2c1N)C(=O)CCC3` showed a GI50 of 895 nM and a TGI of 3500 nM.

Work on `Nc1c(C(=O)Nc2ccccc2)sc2nc3c(cc12)C(=O)CCC3` yielded a GI50 of 150 nM, an LC50 of 68 µM and a TGI of 402 nM.

Work on `Nc1c(C(=O)Nc2cccc(Cl)c2)sc2nc3c(cc12)C(=O)CCC3` yielded a GI50 of 190 nM and a TGI of 788 nM.

For `Nc1c(C(=O)Nc2ccccc2F)sc2nc3c(cc12)C(=O)CCC3`, the GI50 was 440 nM and the TGI was 3310 nM.
